Source: publication PMC7311425, “DREAM-in-CDM Approach and Identification of a New Generation of Anti-inflammatory Drugs Targeting mPGES-1” (Scientific Reports, 2020)
Values joined by “and” are separate entries in the source; they are usually repeats but may differ in a detail not shown here. Equal values may be shown once. “Also recorded” adds a separate entry of the source. Read-outs that look alike come from different tables or passages of the source.

Columns and labels:
[1] = molecular target: T1, human mPGES-1 (Homo sapiens, UniProt O14684); experiment: in vitro inhibitory activity against human mPGES-1 (PGE2 ELISA assay); assay type: biochemical; details: for inhibition at 10 µM: read-out: Inhibition (%) at 10 µM; for IC50: human mPGES-1
T1 construct: made in house
T1 sequence (O14684 1-152): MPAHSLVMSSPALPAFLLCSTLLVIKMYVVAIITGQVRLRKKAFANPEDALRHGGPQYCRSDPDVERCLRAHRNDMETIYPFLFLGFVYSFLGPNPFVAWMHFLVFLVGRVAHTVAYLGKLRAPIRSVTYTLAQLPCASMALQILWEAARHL
Method: The above computational predictions were followed by in vitro activity assays for their actual inhibitory activity against human mPGES-1 using an ELISA assay described in our previous reports[32]–[34]. […] Specifically, 15 FDA-approved drugs (see Fig. S1 of the Supporting Information for the molecular structures) were assayed for their inhibitory activity against human mPGES-1.
(§1) The protocol for the protein preparation and in vitro activity assays were the same as described previously[51]–[54]. The enzyme activity assays were performed on ice in 1.5 ml microfuge tubes by using the expressed human or mouse mPGES-1. The reaction mixture contained: 0.2 M Na2HPO4/NaH2PO4, pH 7.2, 10 µL; 0.1 M GSH, 2.5 µL; diluted microsomal enzyme (80 µg/mL), 1 µL; PGH2 (0.31 mM in DMF), 5 µL; 1 µL inhibitor; and H2O in a final reaction volume of 100 µL. PGH2 was stored in dry ice and used to initiate the reaction. Compounds were incubated with the enzyme for 15 min at room temperature before the addition of cold PGH2 ([…]) to initiate the enzyme reaction. After 30 s, 10 µL of SnCl2 (40 mg/mL) in ethanol was added to stop the reaction. The non-enzymatic conversion of PGH2 to PGE2 was performed in the same buffer devoid of enzyme. The reaction mixture was placed on ice until PGE2 production was determined by the PGE2 enzyme immunoassay as described earlier. IC50 values of the inhibitors were calculated by using the GraphPad Prism 7.

[2] = mouse, in vivo; cited from earlier work
[3] = test system: mixed COX-1 and COX-2 (COX-1/2); experiment: COX (ovine/human) inhibitor screening assay, mixed COX-1 and COX-2; assay type: biochemical; details: 100 µM; equal amounts of COX-1 and COX-2
Text: We used a mixture of equal amounts of purified COX-1 and COX-2 proteins and followed the protocol recommended by the vendor.

[4] = test system: air-pouch PGE2 level; experiment: mouse air-pouch model of inflammation (carrageenan), air-pouch PGE2 by ELISA; assay type: in vivo
Method: The air-pouch fluid collected from mice were analyzed by ELISA assay for the PGE2 concentrations. GraphPad Prism 7 software (GraphPad Software, La Jolla, CA) was used to perform the one-way analysis of variance (ANOVA) with post hoc tests.
All the animal experiments were conducted in our animal laboratories in the University of Kentucky’s Division of Laboratory Animal Resources (DLAR) facility (PHS assurance number A3336-01; USDA number 61-R-0002; AAALAC, Intl. Unit # 13) following the guidelines and regulations of the AAALAC and National Institutes of Health (NIH). The animal procedure used in this project was approved by the University of Kentucky’s Institutional Animal Care and Use Committee (IACUC). The air-pouch model of inflammation[23],[55] is widely used for determining the in vivo effectiveness of inhibitors of prostaglandin synthesis. Air pouches were produced by duplicate injections of 3 mL of sterile air under the skin on the back of mice. […] The air-pouch fluid samples were analyzed for PGE2 by the same ELISA method used in the in vitro enzyme activity assay mentioned above.
GraphPad Prism 7 software (GraphPad Software, La Jolla, CA) was used to perform the one-way analysis of variance (ANOVA) with post hoc testing, allowing us to examine the significance of the difference in the in vivo activity data between each pair of dose conditions. p < 0.05 was considered statistically significant.

[5] = cited from earlier work
[6] = molecular target: T1, human mPGES-1; experiment: mPGES-1 enzyme activity at various GSH concentrations, Lineweaver-Burk plots; assay type: biochemical
Method: as §1

[7] = human, read-out: Cmax (µM) in plasma, cited from earlier work
[8] = predicted Cmax in human organs from rat organ/plasma ratios; assay type: in vivo; details: 50 mg, from rat organ/plasma ratios [56]
Text: In addition, the reported ratios of Cmax values in various organs of rat to Cmax in rat plasma, along with the Cmax values in human plasma, were used to predict the Cmax values in the corresponding organs of human corresponding to the Cmax values in human plasma.

Work on COc1cc2nc(N(C)CCCNC(=O)C3CCCO3)nc(N)c2cc1OC (stereo not drawn) [Alfuzosin] yielded an inhibition at 10 µM ([1]; 10 µM, single concentration) of 22%.

Work on C=C1/C(=C\C=C2/CCC[C@]3(C)[C@@H]([C@H](C)/C=C/[C@@H](O)C4CC4)CC[C@@H]23)C[C@@H](O)C[C@@H]1O [Calcipotriene] yielded an inhibition at 10 µM ([1]; 10 µM, single concentration) of 68% and an IC50 [1] of 3 ± 1.1 µM.

Work on C[C@]12CC[C@@H]3c4ccc(OC(=O)N(CCCl)CCCl)cc4CC[C@H]3[C@@H]1CC[C@@H]2OP(=O)(O)O [Estramustine Phosphate] yielded an inhibition at 10 µM [1] of 36%.

Compound OCCN(CCO)c1nc(N2CCCCC2)c2nc(N(CCO)CCO)nc(N3CCCCC3)c2n1 [Dipyridamole] has an inhibition at 10 µM ([1]; 10 µM, single concentration) of 36%.

CCCCC[C@H](O)/C=C/[C@H]1[C@H](O)CC(=O)[C@@H]1C/C=C\CCCC(=O)O [Dinoprostone] showed an inhibition at 10 µM ([1]; 10 µM, single concentration) of 4%.

For CCOC(=O)[C@H](CCc1ccccc1)N[C@@H](C)C(=O)N1[C@H](C(=O)O)C[C@H]2CCCC[C@@H]21 [Trandolapril], the inhibition at 10 µM ([1]; 10 µM, single concentration) was 54% and the IC50 [1] was 9 ± 2.3 µM.

In the case of Cc1ccc(-c2cc(C(F)(F)F)nn2-c2ccc(S(N)(=O)=O)cc2)cc1 [celecoxib], the toxicity in mice [2] is listed as “significant toxicity”.

C[C@]12C=CC(=O)C=C1CC[C@@H]1[C@@H]2[C@@H](O)C[C@@]2(C)[C@H]1CC[C@]2(O)C(=O)CO [Prednisolone] showed an inhibition at 10 µM ([1]; 10 µM, single concentration) of 44%.

For CC(C)(C)C(=O)OCOP(=O)(COCCn1cnc2c(N)ncnc21)OCOC(=O)C(C)(C)C [Adefovir Dipivoxil], the inhibition at 10 µM ([1]; 10 µM, single concentration) was 19%.

Work on Cc1ccccc1C(=O)Nc1ccc(C(=O)N2CCCC(O)c3cc(Cl)ccc32)c(C)c1 (stereo not drawn) [Tolvaptan] yielded an inhibition at 10 µM ([1]; 10 µM, single concentration) of 52% and an IC50 [1] of 10.2 ± 2.5 µM.

With CS(=O)(=O)CCNCc1ccc(-c2ccc3ncnc(Nc4ccc(OCc5cccc(F)c5)c(Cl)c4)c3c2)o1 [Lapatinib] the “inhibition of COX-1/2” value [3] was “did not significantly inhibit”, the “effect on air-pouch PGE2 level” value ([4]; carrageenan-treated mice, PO, 24 hours) was “significantly and dose-dependently decreased” and the “effectiveness in comparison with celecoxib 50 mg/kg (PO)” value ([4]; lapatinib 50 mg/kg PO) was “less effective”. The “difference in in vivo potency versus 50 mg/kg celecoxib (PO)” value ([4]; lapatinib 100 mg/kg PO) was “no significant difference”, the “dose-limiting toxicity (DLT)” value ([5]; Phase I dose-escalation, up to 7000 mg per day in twice-daily dosing) was “no dose-limiting toxicity” and the “adverse effects in phase I clinical trials” value ([5]; non-cancer patients) was “did not cause any serious adverse effects”. The “effect on Vmax” value ([6]; 1 µM lapatinib) was “did not significantly change”, the “mode of inhibition with respect to GSH” value ([6]; 1 µM lapatinib, GSH at different concentrations) was “competes with co-factor GSH; also recorded: GSH-competitive inhibitor” and the “y-intercept of Lineweaver-Burk plot (1/Vmax)” value ([6]; in the presence of 1 µM lapatinib (0.15 ± 0.02 in the absence)) was 0.18 ± 0.02. The Cmax ([7]; 10 mg, GW572016 ditosylate monohydrate oral suspension, ref Bence et al.[38]) was 0.019 µM, the Cmax ([7]; 25 mg, GW572016 ditosylate monohydrate oral suspension, ref Bence et al.[38]) was 0.04 µM and the Cmax ([7]; 50 mg, GW572016 ditosylate monohydrate oral suspension, ref Bence et al.[38]) was 0.124 µM. For the same compound, the Cmax ([7]; 100 mg, GW572016 ditosylate monohydrate oral suspension, ref Bence et al.[38]) was 0.213 µM, the Cmax ([7]; 175 mg, GW572016 ditosylate monohydrate oral suspension, ref Bence et al.[38]) was 0.38 µM and the Cmax ([7]; 250 mg, GW572016 ditosylate monohydrate oral suspension, ref Bence et al.[38]) was 0.546 µM. For the same compound, the Cmax ([7]; 500 mg, 100-mg and 250-mg tablets, daily oral, ref clinical trial EGF10004) was 1.76 µM, the Cmax ([7]; 650 mg, 100-mg and 250-mg tablets, daily oral, ref clinical trial EGF10004) was 2.24 µM and the Cmax ([7]; 900 mg, 100-mg and 250-mg tablets, daily oral, ref clinical trial EGF10004) was 2.93 µM. The Cmax ([7]; 1000 mg, 100-mg and 250-mg tablets, daily oral, ref clinical trial EGF10004) was 3.18 µM, the Cmax ([7]; 1250 mg orally once daily, ref clinical trial NCT00477464) was 6.06 µM and the Cmax ([7]; 1500 mg, 6 pills at 250 mg once oral daily, average of 36 data points from 6 subgroups, ref clinical trial NCT00486954 and NCT01138046) was 8.6 µM. It also gave a Cmax ([8]; read-out: Predicted Cmax (µM) Kidney) of about 1.3 µM, a Cmax ([8]; read-out: Predicted Cmax (µM) Lung) of about 2 µM and an inhibition at 10 µM ([1]; 10 µM, single concentration) of 99%. For the same compound, the IC50 [1] was 0.8 µM and ~0.8 µM.

With CC1(C)S[C@@H]2[C@H](NC(=O)COc3ccccc3)C(=O)N2[C@H]1C(=O)O [Penicillin V Potassium] the inhibition at 10 µM ([1]; 10 µM, single concentration) was 36%.

For COc1cc2nc(N3CCN(C(=O)C4COc5ccccc5O4)CC3)nc(N)c2cc1OC (stereo not drawn) [Doxazosin], the inhibition at 10 µM ([1]; 10 µM, single concentration) was 21%.

With COc1cc(C)c(/C=C/C(C)=C/C=C/C(C)=C/C(=O)O)c(C)c1C [Acitretin] the inhibition at 10 µM ([1]; 10 µM, single concentration) was 83% and the IC50 [1] was 3.5 ± 1.6 µM.

With CCCCC[C@H](O)/C=C/[C@H]1[C@H](O)CC(=O)[C@@H]1CCCCCCC(=O)O [Alprostadil] the inhibition at 10 µM ([1]; 10 µM, single concentration) was 11%.

With COCC1=C(C(=O)O)N2C(=O)[C@@H](NC(=O)/C(=N\OC)c3csc(N)n3)[C@H]2SC1 [Cefpodoxime] the inhibition at 10 µM ([1]; 10 µM, single concentration) was 47% and the IC50 [1] was 29.7 ± 6.3 µM.
